Measurements reported in article PMC9950745, “A novel promising laccase from the psychrotolerant and halotolerant Antarctic marine Halomonas sp. M68 strain” (Frontiers in Microbiology, 2023).

Tested on: T1, Ant laccase
T1 construct: gene copA
Experiment: spectrophotometric oxidation assay at […] nm, Michaelis-Menten fit
Assay type: biochemical
Conditions: 50 mM sodium acetate, pH 5.0, 20°C; partially purified preparation SNP30

CCn1c(=NN=c2sc3cc(S(=O)(=O)O)ccc3n2CC)sc2cc(S(=O)(=O)O)ccc21 [ABTS, 2,2′-azino-bis (3-ethylbenzothiazoline-6-sulfonic acid)]
Km: ~2000 µM
